{
  "source": "patent US11185068B2",
  "about": "“Diluent for sperm and method for preserving sperm using same” (Livestock Improvement Association of Japan, Inc., priority 2016, dated 2021)",
  "test_system": "thawed bovine sperm",
  "description": "Semen collected from a breeding bull kept at Livestock Improvement Association of Japan was diluted with primary and secondary diluents prepared in the same manner as in Example 1 except that 30 g of fructo-oligosaccharide or 30 g of isomalto-oligosaccharide was added. The semen was diluted so that the final concentration of glycerin was 7%, thereby obtaining diluted sperm solutions. As a control group with soybean lecithin and devoid of fructo-oligosaccharide and isomalto-oligosaccharide, semen was diluted with the diluent described in Example 1 of Patent Document 4, the diluent having a final glycerin concentration of 7%. As a control group with egg yolk and devoid of fructo-oligosaccharide and isomalto-oligosaccharide, semen was diluted with the diluent described in Patent Document 1, produced and sold by Livestock Improvement Association of Japan for preparation of frozen semen, the diluent having a final glycerin concentration of 6.5%. Semen was diluted with each of these diluents so that the diluted semen contained 80 million sperm per ml. The second diluent was added to the primarily diluted semen at a ratio of 1:1 so that the semen contained 40 million sperm per ml. Straws for artificial insemination were then prepared by conventional methods. Cryopreservation was performed using liquid nitrogen by conventional methods. […]",
  "data": [
    {"substance": "fructo-oligosaccharide", "values": [
      {"measurement": "adverse influence on the oocyte penetration ability of sperm and the development ability of fertilized embryo", "result": "substantially no adverse influence"}
    ]},
    {"substance": "isomalto-oligosaccharide", "values": [
      {"measurement": "adverse influence on the oocyte penetration ability of sperm and the development ability of fertilized embryo", "result": "substantially no adverse influence"}
    ]}
  ]
}
